# Reference: patent US20240415114A1, “AGROCHEMICAL FORMULATIONS FOR MITIGATING CRYSTALLIZATION” (SYNGENTA CROP PROTECTION AG, priority 2021, published 2024)
# Experiments:
# [1] = Solubility of fludioxonil in various vegetable oils; assay type: physicochemical; details: 5C, 25C and 50C, FIG. 1
# Experimental: 0.5 g of fludioxonil technical was mixed separately with 5 g of various oils (peanut oil, castor oil, cottonseed oil, olive oil, canola oil, linseed oil, sunflower oil, safflower oil, corn oil, and soybean oil) and incubated at 3 different temperatures (5C, 25C and 50C). The mixtures were then centrifuged and the clear oil supernatant was recovered and analyzed for fludioxonil content.
# [2] = Crystallization study of formulation containing fludioxonil (storage, 325 mesh sieve residue); assay type: physicochemical; details: 2 weeks Condition 1 then 2 weeks at 25° C. or 5° C., FIG. 3
# Experimental: A formulation containing 0.72% w/w fludioxonil, 0.72% w/w picarbutrazox, 1.43% w/w sedaxane, 4.30% w/w thiabendazole and 1.07% w/w mefenoxam was prepared with castor oil or MK 116 Wax or soybean oil as the flow aid. Castor oil loading was maintained at 10% w/w. MK 116 wax loading was maintained at 5% w/w, whereas soybean oil concentration was varied over a range of 5-12% w/w. The formulation was aliquoted into 50 g samples and placed at temperatures of 50° C., 45° C. 38° C., a freeze thaw cycle going from 50° C. to −10° C. and at 25° C. These formulations were stored for 2 weeks at the indicated conditions (Condition 1), after which they were removed and placed at 25° C. or 5° C. for 2 weeks (Condition 2). After completion of the storage regime, the formulations were diluted with 200 mL of water and poured through a 325 mesh sieve. The residue was collected and analysed for the presence of fludioxonil.
smiles,measurement,setting,value
N#Cc1c[nH]cc1-c1cccc2c1OC(F)(F)O2 [fludioxonil],solubility of fludioxonil in oil,"[1]; all other oils (peanut, cottonseed, olive, canola, linseed, sunflower, safflower, corn, soybean)",essentially the same solubilities
same,solubility of fludioxonil in oil,[1]; castor oil,significantly improved solubility
same,loss of fludioxonil (fludioxonil content of sieve residue),[2]; MK 116 wax 5% w/w as flow aid,resulted in loss of fludioxonil
same,loss of fludioxonil (fludioxonil content of sieve residue),[2]; castor oil 10% w/w as flow aid,did not
same,loss of fludioxonil (fludioxonil content of sieve residue),[2]; soybean oil 5-12% w/w as flow aid,resulted in loss of fludioxonil
